Laboratory results published in patent US9738932B2, “Biomarkers for cardiovascular side-effects induced by cox-2 inhibitory compounds” (FIRALIS SAS, priority 2005, dated 2017).

System: mRNA expression in cardiovascular tissues
Experiment: Affymetrix GeneChip mRNA expression profiling of monkey tissues (iliac vein, pulmonary vein, aorta, carotid artery, heart) after two-week oral-gavage treatment
Conditions: iliac vein; group avg, Vioxx without A60055

O=C(O)Cc1ccccc1Nc1c(Cl)cccc1Cl [Voltaren]
HFE (211329_x_at) avg fold change vs control: 0.9 fold
HFE (211332_x_at) avg fold change vs control: 0.9 fold
HFE (211863_x_at) avg fold change vs control: 1.0 fold
HFE (211866_x_at) avg fold change vs control: 0.9 fold
HHL (203020_at) avg fold change vs control: 0.8 fold
HLA-A (211528_x_at) avg fold change vs control: 1.1 fold
HLA-A (211529_x_at) avg fold change vs control: 1.2 fold
HLA-A (211530_x_at) avg fold change vs control: 1.6 fold
HLA-A (215313_x_at) avg fold change vs control: 1.3 fold
HLA-B (208729_x_at) avg fold change vs control: 1.2 fold
HLA-B (209140_x_at) avg fold change vs control: 1.2 fold
HLA-B (211911_x_at) avg fold change vs control: 1.2 fold
HLA-C (208812_x_at) avg fold change vs control: 1.2 fold
HLA-C (214459_x_at) avg fold change vs control: 1.3 fold
HLA-C (216526_x_at) avg fold change vs control: 1.5 fold
HLA-DMA (217478_s_at) avg fold change vs control: 1.3 fold
HLA-DMB (203932_at) avg fold change vs control: 1.0 fold
HLA-DQA1 (212671_s_at) avg fold change vs control: 1.2 fold
HLA-DQB1 (209823_x_at) avg fold change vs control: 1.3 fold
HLA-DQB1 (211654_x_at) avg fold change vs control: 1.6 fold
HLA-DQB1 (211656_x_at) avg fold change vs control: 1.2 fold
HLA-DQB2 (212998_x_at) avg fold change vs control: 2.2 fold
HLA-DRA (208894_at) avg fold change vs control: 1.1 fold
HLA-DRA (210982_s_at) avg fold change vs control: 1.0 fold
HLA-DRB1 (215193_x_at) avg fold change vs control: 1.3 fold
HLA-DRB3 (209312_x_at) avg fold change vs control: 1.1 fold
HLA-DRB6 (217362_x_at) avg fold change vs control: 1.0 fold
HLA-E (200905_x_at) avg fold change vs control: 1.2 fold
HLA-E (217456_x_at) avg fold change vs control: 1.2 fold
HLA-F (204806_x_at) avg fold change vs control: 1.0 fold
HLA-F (221875_x_at) avg fold change vs control: 1.0 fold
ICAM1 (202638_s_at) avg fold change vs control: 1.5 fold
ICAM1 (215485_s_at) avg fold change vs control: 1.1 fold
ICSBP1 (204057_at) avg fold change vs control: 1.1 fold
IFI27 (202411_at) avg fold change vs control: 5.6 fold
IFI30 (201422_at) avg fold change vs control: 1.4 fold
IFI44 (214453_s_at) avg fold change vs control: 1.7 fold
IFIT1 (203153_at) avg fold change vs control: 1.0 fold
IFIT2 (217502_at) avg fold change vs control: 0.8 fold
IFIT4 (204747_at) avg fold change vs control: 0.9 fold
IFITM2 (201315_x_at) avg fold change vs control: 1.6 fold
IFITM3 (212203_x_at) avg fold change vs control: 1.3 fold
IGF1 (209541_at) avg fold change vs control: 1.2 fold
IGFBP4 (201508_at) avg fold change vs control: 0.8 fold
IL1A (208200_at) avg fold change vs control: 1.2 fold
IL2RG (204116_at) avg fold change vs control: 1.2 fold
IL27RA (205926_at) avg fold change vs control: 1.3 fold
INDO (210029_at) avg fold change vs control: 1.4 fold
INPP5D (203332_s_at) avg fold change vs control: 1.2 fold
IRF1 (202531_at) avg fold change vs control: 1.1 fold
IRF7 (208436_s_at) avg fold change vs control: 1.2 fold
ISGF3G (203882_at) avg fold change vs control: 1.4 fold
ITGB2 (202803_s_at) avg fold change vs control: 1.0 fold
JAK1 (214377_s_at) avg fold change vs control: 1.1 fold
KLKB1 (206541_at) avg fold change vs control: 1.2 fold
LAIR1 (208071_s_at) avg fold change vs control: 0.8 fold
LCK (204890_s_at) avg fold change vs control: 0.9 fold
LCP2 (205270_s_at) avg fold change vs control: 1.2 fold
LILRB1 (207857_at) avg fold change vs control: 0.8 fold
LILRB1 (211100_x_at) avg fold change vs control: 1.2 fold
LILRB3 (208594_x_at) avg fold change vs control: 1.4 fold
LILRB3 (210225_x_at) avg fold change vs control: 1.3 fold
LRMP (204674_at) avg fold change vs control: 1.6 fold
LY86 (205859_at) avg fold change vs control: 1.2 fold
LY96 (206584_at) avg fold change vs control: 1.4 fold
LYN (210754_s_at) avg fold change vs control: 1.1 fold
MAF (209348_s_at) avg fold change vs control: 0.9 fold
PCOLCE (202465_at) avg fold change vs control: 0.3 fold
PLA2G4C (209785_s_at) avg fold change vs control: 1.0 fold
PLCL2 (216217_at) avg fold change vs control: 1.0 fold
PLSCR1 (202446_s_at) avg fold change vs control: 1.5 fold
PRC1 (218009_s_at) avg fold change vs control: 0.8 fold
PRG1 (201858_s_at) avg fold change vs control: 1.1 fold
PRG1 (201859_at) avg fold change vs control: 1.2 fold
PTPN22 (206060_s_at) avg fold change vs control: 0.9 fold
PTPRC (207238_s_at) avg fold change vs control: 1.3 fold
SOCS3 (206360_s_at) avg fold change vs control: 1.4 fold
STAT1 (209969_s_at) avg fold change vs control: 2.3 fold
STAT1 (AFFX-HUMISGF3A/M97935_5_at) avg fold change vs control: 1.0 fold
STAT1 (AFFX-HUMISGF3A/M97935_MA_at) avg fold change vs control: 1.0 fold
STAT1 (AFFX-HUMISGF3A/M97935_MB_at) avg fold change vs control: 1.1 fold
TAPBP (208829_at) avg fold change vs control: 1.0 fold
TCTEL1 (201999_s_at) avg fold change vs control: 0.9 fold
TLR1 (210176_at) avg fold change vs control: 1.3 fold
TLR2 (204924_at) avg fold change vs control: 1.4 fold
TNFAIP3 (202643_s_at) avg fold change vs control: 1.3 fold
TNFAIP3 (202644_s_at) avg fold change vs control: 1.7 fold
TNFSF6 (210865_at) avg fold change vs control: 1.2 fold
TNFSF10 (202687_s_at) avg fold change vs control: 1.2 fold
TNFSF10 (202688_at) avg fold change vs control: 1.1 fold
TRGC2 (211144_x_at) avg fold change vs control: 1.0 fold
TRGC2 (216920_s_at) avg fold change vs control: 1.2 fold
VCAM1 (203868_s_at) avg fold change vs control: 1.4 fold
XCL1 (206366_x_at) avg fold change vs control: 1.8 fold
XCL1 (214567_s_at) avg fold change vs control: 0.5 fold
XLKD1 (219059_s_at) avg fold change vs control: 1.4 fold
cig5 (213797_at) avg fold change vs control: 2.1 fold
